Test: recombinant barcode read abundance after kanamycin selection (control-corrected) (log10(CPM+1)); higher = more efficient recombination; sequences stand for … in AGTGCAGAGAAAATCGGCCAGTTTTCTCTGCCTGCAGTCCGCATGCCGT…AGATTTATGCAGCGGACTGCCTTTCTCCCAAAGTGATAAACCGGACAGTATCATGGACCGGTTTTCCCGGTAATCCGTATTTGCAAGGTTGGTTTCACT; site = the 11-nt target
How it was run: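 Recombination efficiency was calculated from barcode counts at recombinant junctions, normalized to counts per million, averaged and corrected by the control. Each value is given as log10(CPM+1). The constructs were Gibson-cloned oligos (promoter, target, barcode, J23119-driven first 104 bridge RNA bases) in a vector with the remaining 73 bp and a T7-inducible recombinase, co-electroporated into E. coli with a donor plasmid and plated in duplicate on chloramphenicol/ampicillin LB agar (control) or chloramphenicol/ampicillin/kanamycin with 0.1 mM IPTG.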
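Also: IS621 recombinase and bridge RNA in Escherichia coli cells.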

| Sequence | recombinant barcode read abundance (log10) |
| --- | --- |
| TCCCGAACTTGGGTTCTAACCTGTTGCCT (site TCCCGAACTAG) | 0.598 |
| TCCCGAACTTGGGTTCTAACCTGTTGCCT (site TCCCGACCTAG) | 0.337 |
| TCCCGAACTTGGGTTCTAACCTGTTGCCT (site TCCCGAGCTAG) | 0.173 |
| TCCCGAACTTGGGTTCTAACCTGTTGCCT (site TCCCGATCTAG) | 0.0125 |
| TCCCGTCCTTGGGTTCTAACCTGTTGCCT (site TCCCGTCCTAG) | 0.636 |
| TCCCGTCCTTGGGTTCTAACCTGTTGCCT (site TCCCTTCCTAG) | 0.196 |
| TCCGACACTTGGGTTCTAACCTGTTGCCT (site TACGACACTAG) | 0.227 |
| TCCGACACTTGGGTTCTAACCTGTTGCCT (site TCCGACACTAG) | 1.95 |
| TCCGAGACTTGGGTTCTAACCTGTTGCGT (site TCCGAGACTAC) | 1.56 |
| TCCGAGACTTGGGTTCTAACCTGTTGCGT (site TTCGAAACTAC) | 0.226 |
| TCCGAGCCTTGGGTTCTAACCTGTTGCGT (site TCCGAGCCTAC) | 2.18 |
| TCCGAGCCTTGGGTTCTAACCTGTTGCGT (site TCCGAGCCTAT) | 1.03 |
| TCCGAGGCTTGGGTTCTAACCTGTTGCTG (site TCAGAGGCTCA) | 0.266 |
| TCCGAGGCTTGGGTTCTAACCTGTTGCTG (site TCCGAGGCTCA) | 0.739 |
| TCCGAGGCTTGGGTTCTAACCTGTTGCTG (site TCGGAGGCTCA) | 0.521 |
| TCCGAGGCTTGGGTTCTAACCTGTTGCTG (site TCTGAGGCTCA) | 0.241 |
| TCCGATACTTGGGTTCTAACCTGTTGCGT (site GTGTGGCCTTG) | 0.11 |
| TCCGATACTTGGGTTCTAACCTGTTGCGT (site TCCGATACTAC) | 1.64 |
| TCCGGCGCTTGGGTTCTAACCTGTTGCGG (site CTTACTACTTG) | 0.0112 |
| TCCGGCGCTTGGGTTCTAACCTGTTGCGG (site TCCGGCGCTCC) | 1.75 |
| TCCGTATCTTGGGTTCTAACCTGTTGCAG (site GAGTGGCCTTC) | 0.16 |
| TCCGTATCTTGGGTTCTAACCTGTTGCAG (site TCCGTATCTCT) | 1.05 |

| Sequence | recombinant barcode read abundance (log10) |
| --- | --- |
| TCCGTCCCTTGGGTTCTAACCTGTTGCAT (site TCCGACCCTGT) | 0.0832 |
| TCCGTCCCTTGGGTTCTAACCTGTTGCAT (site TCCGTCCCTAT) | 1.4 |
| TCCGTGACTTGGGTTCTAACCTGTTGCCT (site TCCGTGACTAG) | 2.07 |
| TCCGTGACTTGGGTTCTAACCTGTTGCCT (site TCCGTGCCTAG) | 0 |
| TCCGTGACTTGGGTTCTAACCTGTTGCCT (site TCCGTGGCTAG) | 0.436 |
| TCCGTGACTTGGGTTCTAACCTGTTGCCT (site TCCGTGTCTAG) | 0.352 |
| TCCTAACCTTGGGTTCTAACCTGTTGCTG (site ACCTAACCTCT) | 0.0586 |
| TCCTAACCTTGGGTTCTAACCTGTTGCTG (site TCCTAACCTCA) | 1.37 |
| TCCTAATCTTGGGTTCTAACCTGTTGCAT (site TCCTAACCTAG) | 0.0364 |
| TCCTAATCTTGGGTTCTAACCTGTTGCAT (site TCCTAATCTAT) | 0.607 |
| TCCTACCCTTGGGTTCTAACCTGTTGCCT (site TACTACCCTAG) | 0.0977 |
| TCCTACCCTTGGGTTCTAACCTGTTGCCT (site TCCTACCCTAG) | 1.36 |
| TCCTACCCTTGGGTTCTAACCTGTTGCCT (site TGCTACCCTAG) | 0.052 |
| TCCTACCCTTGGGTTCTAACCTGTTGCCT (site TTCTACCCTAG) | 0.271 |
| TCCTACTCTTGGGTTCTAACCTGTTGCCG (site TCCGACTCTCG) | 0.0792 |
| TCCTACTCTTGGGTTCTAACCTGTTGCCG (site TCCTACTCTCG) | 0.688 |
| TCCTAGACTTGGGTTCTAACCTGTTGCGG (site TCCTAGACTCC) | 1.53 |
| TCCTAGACTTGGGTTCTAACCTGTTGCGG (site TTCTAGACTCC) | 0.117 |
| TCCTAGGCTTGGGTTCTAACCTGTTGCGC (site TCCTAGGCTGC) | 1.72 |
| TCCTAGGCTTGGGTTCTAACCTGTTGCGC (site TCTTAGGCTAC) | 0.161 |
| TCCTATGCTTGGGTTCTAACCTGTTGCTA (site CAAGTGACTAG) | 0.0648 |
| TCCTATGCTTGGGTTCTAACCTGTTGCTA (site TCCTATGCTTA) | 0.0755 |

| Sequence | recombinant barcode read abundance (log10) |
| --- | --- |
| TCCTATTCTTGGGTTCTAACCTGTTGCGA (site TACTATGCTTC) | 0.141 |
| TCCTATTCTTGGGTTCTAACCTGTTGCGA (site TCCTATTCTTC) | 0.544 |
| TCCTGGGCTTGGGTTCTAACCTGTTGCCG (site TCCTGGGCTCG) | 0.0509 |
| TCCTGGGCTTGGGTTCTAACCTGTTGCCG (site TTATGGGCTCG) | 0.0305 |
| TCCTGTACTTGGGTTCTAACCTGTTGCAT (site TCCAGTACTAT) | 0.272 |
| TCCTGTACTTGGGTTCTAACCTGTTGCAT (site TCCCGTACTAT) | 0.705 |
| TCCTGTACTTGGGTTCTAACCTGTTGCAT (site TCCGGTACTAT) | 0.00868 |
| TCCTGTACTTGGGTTCTAACCTGTTGCAT (site TCCTGTACTAT) | 1.01 |
| TCGAACCCTTGGGTTCTAACCTGTTGCGA (site TCGAACCCTTC) | 0.927 |
| TCGAACCCTTGGGTTCTAACCTGTTGCGA (site TCGCACCCTTC) | 0.0454 |
| TCGAACCCTTGGGTTCTAACCTGTTGCGA (site TCGGACCCTTC) | 0.114 |
| TCGAACCCTTGGGTTCTAACCTGTTGCGA (site TCGTACCCTTC) | 0.0144 |
| TCGAACCCTTGGGTTCTAACCTGTTGCTT (site GCGAACCCTAA) | 0.0343 |
| TCGAACCCTTGGGTTCTAACCTGTTGCTT (site TCGAACCCTAA) | 0.258 |
| TCGAAGGCTTGGGTTCTAACCTGTTGCCT (site TCAAAGGCTAG) | 0.411 |
| TCGAAGGCTTGGGTTCTAACCTGTTGCCT (site TCCAAGGCTAG) | 0.0717 |
| TCGAAGGCTTGGGTTCTAACCTGTTGCCT (site TCGAAGGCTAG) | 0.382 |
| TCGAAGGCTTGGGTTCTAACCTGTTGCCT (site TCTAAGGCTAG) | 0.0236 |
| TCGAATCCTTGGGTTCTAACCTGTTGCCT (site TCGAAACCTAG) | 0.0251 |
| TCGAATCCTTGGGTTCTAACCTGTTGCCT (site TCGAACCCTAG) | 0.0582 |
| TCGAATCCTTGGGTTCTAACCTGTTGCCT (site TCGAAGCCTAG) | 0.0385 |
| TCGAATCCTTGGGTTCTAACCTGTTGCCT (site TCGAATCCTAG) | 0.173 |

| Sequence | recombinant barcode read abundance (log10) |
| --- | --- |
| TCGAATGCTTGGGTTCTAACCTGTTGCCT (site TCGAATGCTAG) | 0.0629 |
| TCGAATGCTTGGGTTCTAACCTGTTGCCT (site TCGGATGCTAA) | 0.0663 |
| TCGACGCCTTGGGTTCTAACCTGTTGCTT (site ACGACGTCTAA) | 0.0317 |
| TCGACGCCTTGGGTTCTAACCTGTTGCTT (site TCGACGCCTAA) | 0.145 |
| TCGAGAGCTTGGGTTCTAACCTGTTGCTA (site TCGAGAGCTCG) | 0.183 |
| TCGAGAGCTTGGGTTCTAACCTGTTGCTA (site TCGAGAGCTTA) | 0.446 |
| TCGAGTGCTTGGGTTCTAACCTGTTGCCT (site TCGAGTACTAG) | 0.187 |
| TCGAGTGCTTGGGTTCTAACCTGTTGCCT (site TCGAGTCCTAG) | 0.19 |
| TCGAGTGCTTGGGTTCTAACCTGTTGCCT (site TCGAGTGCTAG) | 0.0982 |
| TCGAGTGCTTGGGTTCTAACCTGTTGCCT (site TCGAGTTCTAG) | 0 |
| TCGCAGACTTGGGTTCTAACCTGTTGCCT (site CCGCAGACTTG) | 0.54 |
| TCGCAGACTTGGGTTCTAACCTGTTGCCT (site TCGCAGACTAG) | 0.286 |
| TCGCATTCTTGGGTTCTAACCTGTTGCAT (site TCGCATTCTAT) | 0.159 |
| TCGCATTCTTGGGTTCTAACCTGTTGCAT (site TCGCGTTCTAA) | 0.198 |
| TCGCGAACTTGGGTTCTAACCTGTTGCCT (site TCGCGAACTAG) | 0.252 |
| TCGCGAACTTGGGTTCTAACCTGTTGCCT (site TCGGGAACTAG) | 0 |
| TCGCGTACTTGGGTTCTAACCTGTTGCAT (site GCTCGTACTAT) | 0.0605 |
| TCGCGTACTTGGGTTCTAACCTGTTGCAT (site TCGCGTACTAT) | 0.189 |
| TCGCGTCCTTGGGTTCTAACCTGTTGCAA (site TAGCGTCCTGT) | 0.119 |
| TCGCGTCCTTGGGTTCTAACCTGTTGCAA (site TCGCGTCCTTT) | 0.402 |

— the supplement of paper PMC11208160
